Consider 16 molecules from patent US6784201B2, “Benzothiepines having activity as inhibitors of ileal bile acid transport and taurocholate uptake” (G.D. Searle & Company, priority 1994, dated 2004).

One data set addresses T1, human IBAT (Homo sapiens, UniProt Q12908).
T1 construct: expressed in transfected cells; host or cells: Baby hamster kidney (BHK) cells, clone H14
T1 sequence (Q12908 1-348): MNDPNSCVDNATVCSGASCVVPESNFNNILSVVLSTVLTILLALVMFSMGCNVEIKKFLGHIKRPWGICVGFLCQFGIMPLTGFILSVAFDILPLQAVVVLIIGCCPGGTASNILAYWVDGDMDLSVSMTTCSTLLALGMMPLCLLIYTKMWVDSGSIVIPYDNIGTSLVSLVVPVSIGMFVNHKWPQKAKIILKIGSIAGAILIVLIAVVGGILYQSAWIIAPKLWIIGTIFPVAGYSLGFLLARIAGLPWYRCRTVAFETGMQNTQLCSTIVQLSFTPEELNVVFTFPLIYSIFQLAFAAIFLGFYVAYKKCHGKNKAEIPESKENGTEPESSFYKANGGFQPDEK
The data set can be described thus: In vitro assay of IBAT-mediated uptake of [14C]-taurocholate (TC) in H14 cells. In kind it is cell-based. Summed up: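 BHK cells stably expressing human IBAT (H14) were incubated 2 h at 37° C with compound and 3 μM final [14C]-taurocholate in DMEM (4.5 g/L glucose) plus 0.2% fatty acid-free BSA. After cold PBS washes, cell-associated radioactivity was measured by scintillation counting.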

For another data set, the system named is H14 cells. The data set can be described thus: In vitro assay of uptake of [14C]-alanine. It is filed as cell-based, hamster. As for the experimental part:
Baby hamster kidney cells (BHK) transfected with the cDNA of human IBAT (H14 cells) are seeded at 60,000 cells/well in 96 well Top-Count tissue culture plates for assays run within in 24 hours of seeding, 30,000 cells/well for assays run within 48 hours, and 10,000 cells/well for assays run within 72 hours.
On the day of assay, the cell monolayer is gently washed once with 100 μl assay buffer (Dulbecco's Modified Eagle's medium with 4.5 g/L glucose+0.2% (w/v) fatty acid free bovine serum albumin-(FAF)BSA). To each well 50 μl of a two-fold concentrate of test compound in assay buffer is added along with 50 μl of 6 μM [^14C]-taurocholate in assay buffer (final concentration of 3 μM [^14C]-taurocholate). The cell culture plates are incubated 2 hours at 37° C. prior to gently washing each well twice with 100 μl 4° C. Dulbecco's phosphate-buffered saline (PBS) containing 0.2% (w/v) (FAF)BSA. The wells are then gently washed once with 100 μl 4° C. PBS without (FAF)BSA. To each 200 μl of liquid scintillation counting fluid is added, the plates are heat sealed and shaken for 30 minutes at room temperature prior to measuring the amount of radioactivity in each well on a Packard Top-Count instrument.
In Vitro Assay of Compounds that Inhibit Uptake of [^14C3-Alanine
The alanine uptake assay is performed in an identical fashion to the taurocholate assay, with the exception that labeled alanine is substituted for the labeled taurocholate.

In a further data set the test system is fecal bile acid (FBA). Description: Rat gavage assay (fecal bile acid increase). It is filed as in vivo. The procedure:
Male Wister rats (275-300 g) are administered IBAT inhibitors using an oral gavage procedure. Drug or vehicle (0.2% Tween 80 in water) is administered once a day (9:00-10:0 a.m.) for 4 days at varying dosages in a final volume of 2 mL per kilogram of body weight. Total fecal samples are collected during the final 48 hours of the treatment period and analyzed for bile acid content using an enzymatic assay as described below. Compound efficacy is determined by comparison of the increase in fecal bile acid (FBA) concentration in treated rats to the mean FBA concentration of rats in the vehicle group.
Measurement of Fecal Bile Acid Concentration (FBA)
Total fecal output from individually housed hamsters was collected for 24 or 48 hours, dried under a stream of nitrogen, pulverized and weighed. Approximately 0.1 gram was weighed out and extracted into an organic solvent (butanol/water). Following separation and drying, the residue was dissolved in methanol and the amount of bile acid present was measured enzymatically using the 3α-hydroxysteroid steroid dehydrogenase reaction with bile acids to reduce NAD. (Reference: Mashige, F., et al. (1981) Clin. Chem. 27, 1352).

Where [1] appears, read: H14 cells, Table 5, read-out: IC50 uM (In vitro Taurocholate Cell Uptake).
The mark [2] stands for this setting: In Vitro Taurocholate Uptake, Table 10, read-out: Human TC IC50.

Like-named read-outs stand apart in the source and are kept apart here.

In general, melting point refers to the temperature of the solid-liquid transition. With `CCCCC1(CCCC)CS(=O)(=O)c2ccc(N(C)C)cc2[C@@H](c2cccc(NC(=O)OCCC[N+]34CCN(CC3)CC4)c2)[C@H]1O.[Cl-]`, the melting point was 218 to 225 °C.
For `CCCCC1(CCCC)CS(=O)(=O)c2ccc(N(C)C)cc2[C@@H](c2cccc(NC(=O)Nc3cccc(C[N+]45CCN(CC4)CC5)c3)c2)[C@H]1O.[Cl-]`, the melting point lay in the range of 246 to 248 °C.
In general, IC50 refers to the midpoint of a concentration-inhibition curve. By inhibition is commonly meant the change of the read-out against control, counted positive when it falls. On to `O=S1(=O)CC2(CCCCC2)[C@@H](O)[C@@H](c2ccccc2)c2ccccc21` (relative stereo) [Example 60, cis-4-Hydroxy-5-phenyl-2,3,4,5-tetrahydro spiro(benzothiepine-3,1′-cyclohexane)-1,1-dioxide], for which the IC50 on human IBAT (setting [1]) amounted to 9 µM. For the same molecule, in the data set on H14 cells (Mesocricetus auratus), 100 µM produced 59% inhibition.
`CCCCC1(CC)C=C(c2ccccc2)c2ccccc2S(=O)(=O)C1` (stereo not shown) [Example 7, 3-Butyl-3-ethyl-5-phenyl-2,3-dihydrobenzothiepine-1,1-dioxide]: on human IBAT (setting [1]), the IC50 came to 50 µM. The molecule further came in with an inhibition at 100 µM in the data set on H14 cells (Mesocricetus auratus) of 49.3%.
For the molecule `CCCCC1(CC)CS(=O)(=O)c2ccccc2C(=C2CCCCC2)C1O` (stereo not shown) [Example 10a, 3-Butyl-3-ethyl-4-hydroxy-5-cyclohexylidine--2,3,4,5-tetrahydrobenzothiepine-1,1-dioxide], at human IBAT (setting [1]), the IC50 was determined as 7 µM. For the same molecule, the “% Inhibition of Alanine Uptake @ 100 uM” value with H14 cells (100 uM) is 77.6%.
In turn, `CCCC[C@]1(CC)CS(=O)(=O)c2cc(O)ccc2[C@H](c2ccccc2)[C@@H]1O` [Example 27, (3α,4α,5α) 3-Butyl-3-ethyl-4,8-dihydroxy-5-phenyl-2,3,4,5-tetrahydrobenzothiepine-1,1-dioxide] returned an inhibition at 20 µM with H14 cells (Mesocricetus auratus) of 7%.
Take `CCCCC1(CC)CS(=O)(=O)c2cc(OCC)ccc2C(c2ccccc2)C1O` (stereo not shown) [Example 28]: on human IBAT (setting [1]), the concentration for half-maximal inhibition (IC50) came to 8 µM. This molecule also came in with an inhibition at 20 µM in the data set with H14 cells (Mesocricetus auratus) of 31%.
In the case of `CCCC[C@]1(CC)CS(=O)(=O)c2ccc(NO)cc2[C@H](c2ccccc2)[C@@H]1O` [Example 37, (3α,4α,5α) 3-Butyl-3-ethyl-4-hydroxy-7-hydroxyamino-5-phenyl-2,3,4,5-tetrahydrobenzothiepine-1,1-dioxide], the IC50 on human IBAT (setting [1]) is 3 µM. Besides, at 5 µM the inhibition in the data set on H14 cells (Mesocricetus auratus, 5 μM) was 0%.
Turning to `CCCCCCNc1ccc2c(c1)[C@@H](c1ccccc1)[C@@H](O)[C@](CC)(CCCC)CS2(=O)=O` [Example 41, (3α,4β,5β) 3-Butyl-3-ethyl-7-(n-hexylamino)-4-hydroxy-5-phenyl-2,3,4,5-tetrahydrobenzothiepine-1,1-dioxide], the half-inhibitory concentration (IC50) at human IBAT (setting [1]) worked out at 2 µM. The molecule also returned an inhibition at 20 µM in the data set on H14 cells (Mesocricetus auratus) of 0%.
As for `CCCC[C@]1(CC)CS(=O)(=O)c2ccccc2[C@@H](c2ccc(C(=O)OC)cc2)[C@H]1O` [Example 43, (3α,4β,5β) 3-Butyl-5-(4-carbomethoxyphenyl)-3-ethyl-4-hydroxy-2,3,4,5-tetrahydrobenzothiepine-1,1-dioxide], the IC50 on human IBAT (setting [1]) is 1.5 µM. Besides, the inhibition at 25 µM with H14 cells (Mesocricetus auratus, 25 μM) worked out at 16%.
For `CCCC[C@]1(CC)CS(=O)(=O)c2ccc(OC)cc2[C@H](c2ccccc2)[C@@H]1O` [Example 48, (3α,4α,5α) 3-Butyl-3-ethyl-4-hydroxy-7-methoxy-5-phenyl-2,3,4,5-tetrahydrobenzothiepine-1,1-dioxide], the IC50 on human IBAT (setting [1]) came out at 2 µM. This molecule also showed an inhibition at 20 µM in the data set with H14 cells (Mesocricetus auratus) of 22%.
In the case of `CCCCC1(CCCC)CS(=O)(=O)c2ccc(N(C)C)cc2[C@@H](c2ccc(OCCCCCN(CC(=O)O)CC(=O)O)cc2)[C@H]1O` [Example 1415, (4R-cis)-N-(Carboxymethyl)-N-[5-[4-[3,3-dibutyl-7-(dimethylamino)-2,3,4,5-tetrahydro-4-hydroxy-1,1-dioxido-1-benzothiepin-5-yl]phenoxy]pentyl]glycine], the “Delta (micromoles fecal bile acid per day)” value with fecal bile acid (FBA) (dose 2 mg/kg/day) is reported as 48.9 micromoles fecal bile acid per day; in the data set on fecal bile acid (FBA) (dose 5 mg/kg/day), 59.9 micromoles fecal bile acid per day; with fecal bile acid (FBA) (dose .016 mg/kg/day), 12.7 micromoles fecal bile acid per day; in the data set with fecal bile acid (FBA) (dose .04 mg/kg/day) it was 23.9 micromoles fecal bile acid per day; with fecal bile acid (FBA) (dose .08 mg/kg/day) it was 27.1 micromoles fecal bile acid per day; with fecal bile acid (FBA) (dose .2 mg/kg/day) it was 48.1 micromoles fecal bile acid per day. Further, the “Delta (micromoles fecal bile acid per day)” value in the data set on fecal bile acid (FBA) (dose .4 mg/kg/day) is 25.7 micromoles fecal bile acid per day. Besides, the IC50 at human IBAT (setting [2]) was found to be 0.002 µM.
For the molecule `CCCCC1(CCCC)CS(=O)(=O)c2ccc(N(C)C)cc2[C@@H](c2ccc(OCCCCCN(CCN(CC)CC)CCN(CC)CC)cc2)[C@H]1O` [Example 1416, (4R-cis)-5-[4-[[5-[bis[2-(Diethylamino)ethyl]amino]pentyl]oxy]phenyl]-3,3-dibutyl-7-(dimethylamino)-2,3,4,5-tetrahydro-1-benzothiepin-4-ol 1,1-dioxide], the “Delta (micromoles fecal bile acid per day)” value in the data set on fecal bile acid (FBA) (dose 2 mg/kg/day) is reported as 46.1 micromoles fecal bile acid per day; in the data set on fecal bile acid (FBA) (dose .016 mg/kg/day) it was −7.8 micromoles fecal bile acid per day; with fecal bile acid (FBA) (dose .08 mg/kg/day), 25 micromoles fecal bile acid per day; in the data set on fecal bile acid (FBA) (dose .4 mg/kg/day), 21.9 micromoles fecal bile acid per day. Further, the IC50 at human IBAT (setting [2]) amounted to 0.014 µM.
In the same order, the values of `CCCCC1(CCCC)CS(=O)(=O)c2ccc(N(C)C)cc2[C@@H](c2ccc(OCCCCCNCCc3cnc[nH]3)cc2)[C@H]1O` [Example 1417, (4R-cis)-3,3-Dibutyl-7-(dimethylamino)-2,3,4,5-tetrahydro-5-[4-[[5-[[2-(1H-imidazol-4-yl)ethyl]amino]pentyl]oxy]phenyl]-1-benzothiepin-4-ol 1,1-dioxide] are 51.4 micromoles fecal bile acid per day, 29.3 micromoles fecal bile acid per day, 39.6 micromoles fecal bile acid per day, 42 micromoles fecal bile acid per day and 0.002 µM.
In the same order, the values of `CCCCC1(CCCC)CS(=O)(=O)c2ccc(N(C)C)cc2[C@@H](c2ccc(OCCCCCNCC(=O)O)cc2)[C@H]1O` [Example 1423, (4R-cis)-N-[5-[4-[3,3-Dibutyl-7-(dimethylamino)-2,3,4,5-tetrahydro-4-hydroxy-1,1-dioxido-1-benzothiepin-5-yl]phenoxy]pentyl]glycine] are 56.5 micromoles fecal bile acid per day, 14.4 micromoles fecal bile acid per day, 35.3 micromoles fecal bile acid per day, 69.3 micromoles fecal bile acid per day and 0.003 µM.
With `CCCCC1(CCCC)CS(=O)(=O)c2ccc(N(C)C)cc2[C@@H](c2ccc(OCc3ccc(C[n+]4ccccc4)cc3)cc2)[C@H]1O.[Cl-]` [Example 1425, (4R-cis)-1-[[4-[[4-[3,3-Dibutyl-7-(dimethylamino)-2,3,4,5-tetrahydro-4-hydroxy-1,1-dioxido-1-benzothiepin-5-yl]phenoxy]methyl]phenyl]methyl]-pyridinium chloride], the “Delta (micromoles fecal bile acid per day)” value is 91.8 micromoles fecal bile acid per day with fecal bile acid (FBA) (dose 5 mg/kg/day), 66.4 micromoles fecal bile acid per day with fecal bile acid (FBA) (dose .04 mg/kg/day) and 100. micromoles fecal bile acid per day with fecal bile acid (FBA) (dose .2 mg/kg/day). Further, the IC50 on human IBAT (setting [2]) came out at 0.002 µM.
